pIC50: −log10 of the molar value. ≈ marks a conversion by molar mass, not a printed value.
What was measured:
Topoisomerase IV = Topoisomerase IV (Staphylococcus aureus, UniProt P0C1S7+P0C1U9); assay: Inhibition of Staphylococcus aureus topoisomerase-IV assessed as reduction in decatenation using kinetoplast DNA as substrate incubated for 30 mins by ethidium bromide staining based agarose gel electrophoresis method; type: protein-complex assay
[1] = Cytotoxicity against human HSF assessed as reduction in cell viability incubated for 72 hrs by MTT assay; type: toxicity, cell-based; conditions: HSF cells
Pseudomonas aeruginosa [2] = assay: Antibacterial activity against Pseudomonas aeruginosa ATCC 27853 assessed as reduction in microbial growth incubated for 24 hrs by broth microdilution method; type: functional
Staphylococcus aureus [3] = assay: Antibacterial activity against methicillin sensitive Staphylococcus aureus ATCC 29213 assessed as reduction in microbial growth incubated for 24 hrs by broth microdilution method; type: functional
Bacillus subtilis = assay: Antibacterial activity against Bacillus subtilis 168 assessed as reduction in microbial growth incubated for 24 hrs by broth microdilution method; type: functional
[4] = Cytotoxicity against human MSC assessed as reduction in cell viability incubated for 72 hrs by MTT assay; type: toxicity, cell-based; conditions: MSC cells
Salmonella typhimurium = assay: Antibacterial activity against Salmonella typhimurium TA100 assessed as reduction in microbial growth incubated for 24 hrs by broth microdilution method; type: functional, Salmonella enterica subsp. enterica serovar Typhimurium; conditions: Salmonella enterica
[5] = Cytotoxicity against human CHL assessed as reduction in cell viability incubated for 72 hrs by MTT assay; type: toxicity, cell-based; conditions: CHL cells
Escherichia coli [6] = assay: Antibacterial activity against Escherichia coli ATCC 25922 assessed as reduction in microbial growth incubated for 24 hrs by broth microdilution method; type: functional
Staphylococcus aureus [7] = assay: Antibacterial activity against clinical isolate methicillin resistant Staphylococcus aureus 4771 assessed as reduction in microbial growth incubated for 24 hrs by broth microdilution method; type: functional
[8] = system: Staphylococcus epidermidis; assay: Antibacterial activity against clinical isolate Staphylococcus epidermidis assessed as reduction in microbial growth incubated for 24 hrs by broth microdilution method; type: functional
Cedecea davisae = assay: Antibacterial activity against clinical isolate Cedecea davisae 1813 assessed as reduction in microbial growth incubated for 24 hrs by broth microdilution method; type: functional
Pseudomonas aeruginosa [9] = assay: Antibacterial activity against clinical isolate Pseudomonas aeruginosa NKC 17 assessed as reduction in microbial growth incubated for 24 hrs by broth microdilution method; type: functional
Klebsiella aerogenes = assay: Antibacterial activity against clinical isolate Enterobacter aerogenes NKC 8 assessed as reduction in microbial growth incubated for 24 hrs by broth microdilution method; type: functional
Staphylococcus aureus [10] = assay: Antibacterial activity against clinical isolate Staphylococcus aureus 1812 assessed as reduction in microbial growth incubated for 24 hrs by broth microdilution method; type: functional
[11] = system: Staphylococcus haemolyticus; assay: Antibacterial activity against clinical isolate Staphylococcus haemolyticus 1464 assessed as reduction in microbial growth incubated for 24 hrs by broth microdilution method; type: functional
[12] = system: Staphylococcus epidermidis; assay: Antibacterial activity against clinical isolate Staphylococcus epidermidis NKC 37/1 assessed as reduction in microbial growth incubated for 24 hrs by broth microdilution method; type: functional
Enterococcus faecalis = assay: Antibacterial activity against clinical isolate Enterococcus faecalis 1465 assessed as reduction in microbial growth incubated for 24 hrs by broth microdilution method; type: functional
Klebsiella pneumoniae = assay: Antibacterial activity against clinical isolate Klebsiella pneumoniae 1678 assessed as reduction in microbial growth incubated for 24 hrs by broth microdilution method; type: functional
[13] = system: Staphylococcus auricularis; assay: Antibacterial activity against clinical isolate Staphylococcus auricularis NKC 7 assessed as reduction in microbial growth incubated for 24 hrs by broth microdilution method; type: functional
Escherichia coli [14] = assay: Antibacterial activity against clinical isolate Escherichia coli NKC 1 assessed as reduction in microbial growth incubated for 24 hrs by broth microdilution method; type: functional
Micrococcus luteus = assay: Antibacterial activity against clinical isolate Micrococcus luteus assessed as reduction in microbial growth incubated for 24 hrs by broth microdilution method; type: functional
[15] = system: Staphylococcus haemolyticus; assay: Antibacterial activity against clinical isolate Staphylococcus haemolyticus NKC 31/2 assessed as reduction in microbial growth incubated for 24 hrs by broth microdilution method; type: functional
Staphylococcus aureus [16] = assay: Antibacterial activity against clinical isolate Staphylococcus aureus 4721 assessed as reduction in microbial growth incubated for 24 hrs by broth microdilution method; type: functional

SMILES | CC50 at 72 h [1] | MIC (Pseudomonas aeruginosa [2]) | MIC (Staphylococcus aureus [3]) | MIC (Bacillus subtilis) | CC50 at 72 h [4] | MIC (Salmonella typhimurium) | CC50 at 72 h [5] | MIC (Escherichia coli [6]) | MIC (Staphylococcus aureus [7]) | MIC [8] | MIC (Cedecea davisae) | MIC (Pseudomonas aeruginosa [9]) | MIC (Klebsiella aerogenes) | MIC (Staphylococcus aureus [10]) | MIC [11] | MIC [12] | MIC (Enterococcus faecalis) | MIC (Klebsiella pneumoniae) | MIC [13] | MIC (Escherichia coli [14]) | further results
COc1c(N2C[C@@H]3CCCN[C@@H]3C2)c(F)cc2c(=O)c(C(=O)O)cn(C3CC3)c12 [MOXIFLOXACIN] | 36.5 µg/mL (≈ 90.8 µM) | 4 µg/mL | 0.5 µg/mL | 2 µg/mL | 39.4 µg/mL (≈ 98.2 µM) | 1 µg/mL | 35 µg/mL (≈ 87.2 µM) | 1 µg/mL | – | – | – | – | – | – | – | – | – | – | – | – | pIC50 (Topoisomerase IV): 4.52
CCn1cc(C(=O)O)c(=O)c2cc(F)c(N3CCNC(C)C3)c(F)c21 (stereo not drawn) [LOMEFLOXACIN] | 46.2 µg/mL (≈ 131 µM) | 4 µg/mL | 0.5 µg/mL | 0.5 µg/mL | 35.7 µg/mL (≈ 102 µM) | 1 µg/mL | 31.3 µg/mL (≈ 89.1 µM) | 1 µg/mL | 1 µg/mL | 2 µg/mL | 0.25 µg/mL | 1 µg/mL | 1 µg/mL | 2 µg/mL | 0.5 µg/mL | 2 µg/mL | > 64 µg/mL | 1 µg/mL | 0.06 µg/mL | 0.06 µg/mL | MIC (Micrococcus luteus): 1 µg/mL; MIC [15]: 8 µg/mL; MIC (Staphylococcus aureus [16]): 1 µg/mL
COc1c(N2C[C@@H]3CCCN(Cc4nc(C)c5c(c4CO)COC(C)(C)O5)[C@@H]3C2)c(F)cc2c(=O)c(C(=O)O)cn(C3CC3)c12 | 11.3 µg/mL (≈ 18.1 µM) | > 64 µg/mL | 2 µg/mL | 2 µg/mL | 7.26 µg/mL (≈ 11.7 µM) | 2 µg/mL | 6.41 µg/mL (≈ 10.3 µM) | > 64 µg/mL | 1 µg/mL | 4 µg/mL | 0.5 µg/mL | > 64 µg/mL | 16 µg/mL | 2 µg/mL | 1 µg/mL | 2 µg/mL | 16 µg/mL | 64 µg/mL | 0.03 µg/mL | 8 µg/mL | MIC (Micrococcus luteus): 2 µg/mL; MIC [15]: 32 µg/mL; MIC (Staphylococcus aureus [16]): 1 µg/mL
COc1c(N2C[C@@H]3CCCN(Cc4cnc(C)c5c4COC(C)(C)O5)[C@@H]3C2)c(F)cc2c(=O)c(C(=O)O)cn(C3CC3)c12 | 3.44 µg/mL (≈ 5.8 µM) | > 64 µg/mL | 2 µg/mL | 2 µg/mL | 3.84 µg/mL (≈ 6.48 µM) | 4 µg/mL | 2.85 µg/mL (≈ 4.81 µM) | > 64 µg/mL | 4 µg/mL | 2 µg/mL | 0.5 µg/mL | > 64 µg/mL | 64 µg/mL | 1 µg/mL | 0.5 µg/mL | 1 µg/mL | 32 µg/mL | 32 µg/mL | 0.03 µg/mL | 4 µg/mL | MIC (Micrococcus luteus): 4 µg/mL; MIC [15]: 32 µg/mL; MIC (Staphylococcus aureus [16]): 0.5 µg/mL
